In US20230355599A1, “BIOMARKERS FOR CBL, AND COMPOSITIONS AND METHODS FOR THEIR USE” (NURIX THERAPEUTICS, INC., priority 2022, published 2023):

Columns and labels:
phosphorylated HS1 = assay: Phosphorylated HS1 in circulating CD8+ T cells of patients, Phase 1 trial (flow cytometry); format: in vivo, human
Protocol: Pharmacodynamic analysis of the proximal biomarker, phosphorylated HS1 is assessed in circulating CD8^+ T cells from patients that are being administered doses ranging from 5 to 50 mg of Compound 23 once daily and is being used to assess target engagement of Compound 23 as part of the dose/exposure-response profile. Whole blood is collected longitudinally and added into two types of TruCulture (Myriad) tubes. One tube contains media, and the second tube contains anti-CD3 and anti-CD28, which are subsequently crosslinked to induce cellular stimulation for pharmacodynamic analysis. Phosphorylated HS1 is assessed by flow cytometry pre and post dose on Cycle 1 Day 1 (C1D1) and Cycle 2 Day 1 (C2D1) to characterize single/multiple dose PD profiles.
% Maximal phosphorylated signal and % AUC are two commonly used parameters to assess the pharmacodynamic effects of drugs.
% Maximal phosphorylated signal refers to the maximum amount of a specific protein that becomes phosphorylated (i.e., modified by the addition of a phosphate group) in response to a drug or other stimulus. This parameter is often used to measure the activation of signaling pathways that are important for various cellular processes, including cell growth and differentiation, immune response, and metabolism.
% AUC, on the other hand, refers to the area under the curve (AUC) over time, expressed as a percentage of the maximum possible AUC. In summary, both % maximal phosphorylated signal and % AUC are useful parameters to assess the pharmacodynamic effects of drugs. % maximal phosphorylated signal is a measure of the activation of signaling pathways, while % AUC reflects the duration of the effect on PD signals. Both parameters can be used to evaluate the potency and duration of a drug's pharmacodynamic effects.

phosphorylated ZAP70 = assay: Phosphorylated ZAP70 in cynomolgus macaque CD8+ T cells from whole blood in vitro (flow cytometry); format: cell-based; conditions: Macaca fascicularis, T-cell, whole blood from six cynomolgus macaques, 2 hrs 37° C., 2 μg/mL anti-CD3 & anti-CD28 + crosslinker 60 minutes, read-out: Average mean EC50±standard deviation, phosphorylated ZAP70
Protocol: To assess these candidate clinical proximal biomarkers of Cbl-b inhibition on T cells, pharmacodynamic analysis was performed. Whole blood was obtained from cynomolgus macaque donors, then incubated with increasing concentrations of Compound 23. The response to Cbl-b inhibition on phosphorylated HS1, ZAP70 and PLCγ2 was measured in CD8^+ T cells using flow cytometry. This technique is highly quantitative and can measure multiple phosphorylation markers in different cell populations within the same sample.
DMSO (Dimethyl sulfoxide) was used to reconstitute Compound 23. Final concentration of DMSO was 0.05% in media for in vitro assays. […]
Stained cells were run on an Attune NxT Acoustic Focusing Flow Cytometer (Thermo Fisher, cat. No. A29004), and data was analyzed using FlowJo (v10.6.1) and GraphPad Prism (v8.00) software. Single lymphocytes were gated for CD8^+ cells (CD45^+/CD8^+) cells, and population frequencies were calculated for each population. The data is quantified by the percent positive. […] As protein becomes phosphorylated the fluorescence increases resulting in a larger fraction of the cells entering that gate. Each population was evaluated for % positive pY759-PLCγ2, pY397-HS1 levels, pY319/Syk (Y352)-ZAP70 levels.

[1] = 5 mg once daily, n=1, cycle 1, day 1
[2] = 15 mg once daily, n=12, cycle 1, day 1
[3] = 25 mg once daily, n=7, cycle 1, day 1
[4] = 50 mg once daily, n=2, cycle 1, day 1

C[C@H]1CCCN(Cc2cc3c(c(C(F)(F)F)c2)CN(c2cccc([C@]4(c5nncn5C)C[C@@H](C)C4)c2)C3=O)C1 [Compound 23]
% of phosphorylated HS1 expressing CD8+ T cells (maximal) (phosphorylated HS1; [1]): 35%
phosphorylated HS1 AUC (phosphorylated HS1; [1]): 578
% of phosphorylated HS1 expressing CD8+ T cells (maximal) (phosphorylated HS1; [2]): 46%
phosphorylated HS1 AUC (phosphorylated HS1; [2]): 787
% of phosphorylated HS1 expressing CD8+ T cells (maximal) (phosphorylated HS1; [3]): 53%
phosphorylated HS1 AUC (phosphorylated HS1; [3]): 876
% of phosphorylated HS1 expressing CD8+ T cells (maximal) (phosphorylated HS1; [4]): 52%
phosphorylated HS1 AUC (phosphorylated HS1; [4]): 1055
trend of AUC % pHS1 with PK (phosphorylated HS1; Pearson correlation with PK parameters (AUC and CMAX), statistically significant slope p=0.02): positive trend
EC50 (phosphorylated ZAP70): 173 ± 177 nM
